Publication PMC12040169 (PLOS Biology, 2025)

assay: in vitro; conditions: human, hela cells, % viability

SMILES | viability at 28.5 h, 10 µM
Cc1ccc(NC(=O)C2CC(=O)Nc3nc4ccccc4n32)cc1 (stereo not shown) [CBK288134] | 113%
Cc1ccccc1-c1cc(=O)[nH]c(Nc2ccccc2)n1 [CBK288142] | 97%
Cc1ccc(Nc2ncc3c(n2)CCCC3=O)cc1 [CBK288143] | 87.6%
COc1cc(C2C3=C(COC3=O)Nc3[nH]nc(C)c32)ccc1O (stereo not shown) [CBK288146] | 98.5%
O=C1CCCC2=C1C(c1ccc(OCc3ccccc3)cc1)c1c([nH][nH]c1=O)N2 (stereo not shown) [CBK288149] | 92.1%
O=C1CCCC2=C1C(c1ccccc1Cl)n1nnnc1N2 (stereo not shown) [CBK288151] | 93%
Cc1ccc(-c2nc3ncc(C#N)c(N)n3n2)cc1 [CBK288153] | 106%
O=C1NNC=Cc2c1cnc1nc(C(F)(F)F)nn21 [CBK288156] | 93.3%
Cc1cc(C)nc(NC(=N)NCc2ccccc2)n1 [CBK288157] | 94.2%
CCN1C(=O)c2[nH]nc(-c3ccccc3O)c2C1c1cccc(O)c1 (stereo not shown) [CBK288159] | 95.9%
Cc1ccc(-n2c(C)c(C)c3c(NCCO)cnnc32)cc1 [CBK288162] | 101%
Cn1c(=O)c2c(nc(NCCOCCO)n2C)n(C)c1=O [CBK288164] | 98.2%
COCc1cc(=O)n2ncc(-c3ccccc3)c2[nH]1 [CBK288168] | 84.6%
CSc1nc2n(n1)C(C)C1=C(CCCC1=O)N2 (stereo not shown) [CBK288169] | 108%
COc1cc(NC(=O)c2nc[nH]n2)c(OC)cc1Cl [CBK288170] | 93%
c1ccc2c(c1)NC(c1ccncc1)n1nnnc1-2 (stereo not shown) [CBK288171] | 82.5%
Cc1ccc(C(=O)n2nc(-c3cccnc3)nc2N)cc1 [CBK288172] | 97.4%
Oc1cc(Cc2ccccc2)cnc1CN1CCOCC1 [CBK288173] | 94%
CCOc1cc(O)c(-c2nc(N)ncc2-c2ccc3c(c2)OCCO3)cc1CC [CBK288174] | 94.7%
NC(=O)Nc1ccc2c(c1)ncn2C1CCCCC1 [CBK288176] | 95.6%
CCOc1ccc(-c2c(C3CC3)n[nH]c2N)cc1OCC [CBK288177] | 107%
CC(C)(C)NC(=O)COc1ccc(CNc2nc[nH]n2)cc1 [CBK288179] | 89.3%
N#Cc1ccc(C2NC(=O)c3ccccc3O2)cc1 (stereo not shown) [CBK288180] | 89.3%
Nc1ncnc2c1nc(SCc1ccccc1)n2Cc1ccccc1 [CBK288181] | 90.9%
O=C(O)CC1Cn2ncc(-c3ccccc3)c2NC1=O (stereo not shown) [CBK288187] | 89.5%

SMILES | viability at 28.5 h, 10 µM
O=c1c2c([nH]c3nc(COc4ccccc4)nn13)CCC2 [CBK288188] | 98%
Nc1cc(=O)[nH]c(=O)n1CCc1c[nH]c2ccccc12 [CBK288190] | 98.1%
Cc1ccc(-c2c(N3CCCC3)n[nH]c2C2CC2)cc1 [CBK288192] | 97.8%
Cc1nc(=O)c(-c2ccccc2)c(C)n1-c1ccc2cn[nH]c2c1 [CBK288193] | 100%
Nc1nc2n(c1C(=O)c1ccc(Cl)cc1)CCC2 [CBK288194] | 92.5%
COc1ccc(Cl)cc1Nc1ncnc(N)n1 [CBK288195] | 100%
N#Cc1c2c(c3nncn3c1Nc1ccccc1)CCCC2 [CBK288197] | 97.7%
CC1(C)Cc2c(cnn2-c2ccc(F)cc2)C(N)C1 (stereo not shown) [CBK288200] | 91.9%
COc1ccccc1OCC(=O)N1CCNC1=O [CBK288201] | 93.8%
O=C(Cc1ccccc1)Nc1ccc2[nH]ncc2c1 [CBK288211] | 104%
CCCc1cc(C(=O)Nc2nccs2)cs1 [CBK288212] | 83.9%
O=C(Nc1ncccc1Cl)c1ccc(F)cc1 [CBK288215] | 93.1%
Nc1nc2n(n1)C1(CCCCC1)C1=C(CCCC1)N2 [CBK288219] | 86.7%
CC(C)(Oc1ccc(Cl)cc1)C(=O)Nc1nnc[nH]1 [CBK288220] | 102%
Cc1ccc2c(c1C)NC(=O)CC2c1ccc(F)cc1 (stereo not shown) [CBK288221] | 101%
Cc1ccc(Nc2nc(N)nc(-c3cc4ccccc4o3)n2)cc1 [CBK288222] | 105%
CCCCN1CC(C(=O)Nc2nccs2)CC1=O (stereo not shown) [CBK288224] | 95.3%
CSc1ccccc1C(=O)Nc1nccs1 [CBK288225] | 88.7%
Cc1nc(N2CCCC2)ncc1-c1cc(O)nc(N2CCCCC2)n1 [CBK288226] | 92.3%
Oc1ccc(-c2oncc2-c2ccccc2)c(O)c1 [CBK288228] | 96.2%
Cc1cccc(NC(=O)c2n[nH]c3ccccc23)c1 [CBK288231] | 84.6%
O=C1NN=C(c2ccccc2)CC1c1c[nH]c2ccccc12 (stereo not shown) [CBK288235] | 104%
CN(C)c1nc(N)nc(COc2ccccc2F)n1 [CBK288236] | 105%
O=C1CC(c2ccccc2)c2c(c3ccccc3[nH]c2=O)O1 (stereo not shown) [CBK288237] | 112%
COc1cccc(-c2n[nH]c3c2C(c2cccnc2)NC3=O)c1 (stereo not shown) [CBK288238] | 86.3%

SMILES | viability at 28.5 h, 10 µM
COc1ccc(Oc2c(C)n[nH]c2-c2ccc(O)cc2O)cc1 [CBK288239] | 96%
Cn1nccc1C(=O)N1CCN(c2ncccn2)CC1 [CBK288240] | 90.7%
Cc1n[nH]c(C)c1C12CC3CC(CC(CC(=O)O)(C3)C1)C2 [CBK288241] | 92.2%
O=C(NCc1ccncc1)C1CC1c1ccccc1 (stereo not shown) [CBK288242] | 107%
Cc1cc(NC(=O)Nc2cccc(Cl)c2C)no1 [CBK288245] | 87.3%
Cc1cnc(NC(=O)C(C)Oc2ccccc2)s1 (stereo not shown) [CBK288250] | 108%
Cc1csc(NC(=O)Cc2ccccc2F)n1 [CBK288252] | 84.3%
O=C1c2ccccc2NC(c2cnc3ccccc3n2)N1O (stereo not shown) [CBK288357] | 84.7%
COc1ccccc1-c1cc(C(F)F)nc(S)c1C#N [CBK288358] | 88.8%
CCOc1cc(/C=N/O)c(Br)cc1O [CBK288359] | 87.4%
S=c1nccc(N2CCC(Cc3ccccc3)CC2)[nH]1 [CBK288361] | 112%
CCCOc1ccc(-c2cc(C(=O)NO)n[nH]2)cc1C [CBK288362] | 61.3%
O=c1cc(CO)oc(CN2CCCCCC2)c1O [CBK288363] | 97.7%
Fc1ccc(-n2c(C3CC3)n[nH]c2=S)cc1Cl [CBK288364] | 96.7%
OCCCCn1c(-c2cccnc2)n[nH]c1=S [CBK288365] | 88.6%
O=C(NCCCN1CCOCC1)/C(=N\O)c1ccccn1 [CBK288366] | 94.1%
NCCCc1c(-c2ccc(Cl)cc2Cl)[nH][nH]c1=O [CBK288367] | 86.8%
CNC(=S)Nc1ncn(Cc2cccc(F)c2)n1 [CBK288368] | 106%
NC(=S)N1N=C2CCCCC2C1c1ccccc1 (stereo not shown) [CBK288371] | 84.2%
CC(C)CCC1(CN2CCCC2=O)C(=O)NC(=O)NC1=O [CBK288372] | 90.5%
CCN(CC)CCNC(=O)c1ccc(/C=N/O)nc1 [CBK288375] | 100%
O=C1c2ccccc2NC(c2ccccc2F)N1O (stereo not shown) [CBK288377] | 93.4%
N#Cc1cc2c([nH]c1=S)CCN(Cc1ccccc1)C2 [CBK288378] | 90.3%
COc1ccc(Cl)cc1-n1c(-c2ccc3ccccc3n2)n[nH]c1=S [CBK288382] | 95.4%
CC(=O)N1CCN(Cc2oc(C)cc(=O)c2O)CC1 [CBK288383] | 91.6%

SMILES | viability at 28.5 h, 10 µM
Oc1ccccc1-c1n[nH]c(=S)n1-c1ccc(OC(F)(F)F)cc1 [CBK288384] | 85.9%
COc1cccc(NC(=O)c2cc3ccccc3o/c2=N\O)c1 [CBK288387] | 86%
CCOc1ccc(Cc2nnc(S)n2C2CC2)cc1OCC [CBK288388] | 66.4%
Cc1cccc(NC(=O)c2ccc3n[nH]c(=S)n3c2)c1 [CBK288389] | 88%
CC1(C)CC(=O)C(C(=S)Nc2ccccc2)=C(O)C1 [CBK288395] | 95.3%
Cc1ccc(C(=O)O)cc1NC(=S)NC1CC1 [CBK288397] | 94.4%
O=C1CNC(=S)N1c1cccc(C(F)(F)F)c1 [CBK288398] | 104%
O=C(Nc1ccccc1)N(O)CC(O)COc1ccccc1 (stereo not shown) [CBK288399] | 90.7%
O=c1cc(CO)oc(CN2CCSCC2)c1O [CBK288404] | 89%
O=C(/C=N/O)Nc1cc(C(F)(F)F)ccc1Cl [CBK288405] | 107%
CN(C)c1ccc(-c2[nH][nH]c(=O)c2CCCN)cc1 [CBK288406] | 105%
CCN(CC)CCNC(=O)/C(=N\O)c1ccccc1 [CBK288408] | 106%
Cn1c(=O)c2c(nc(S)n2CCCc2ccccc2)n(C)c1=O [CBK288411] | 105%
Sc1nnc(C2CCCC2)n1CC1CCCO1 (stereo not shown) [CBK288413] | 107%
CCc1ccccc1NC(=S)Nc1cccc(C)n1 [CBK288415] | 103%
O=C(NCc1cccnc1)/C(=N\O)c1ccccc1 [CBK288416] | 102%
CNC(=S)NCc1nc(-c2ccc(C)cc2)no1 [CBK288418] | 97.3%
Cn1c(=O)c2c(=S)[nH]c(-c3ccccc3)nc2n(C)c1=O [CBK288422] | 103%
COCc1nnc(S)n1-c1cccc(OC)c1 [CBK288424] | 87.7%
S=C(Nc1nc2c(s1)CCCC2)NC1CC1 [CBK288425] | 90.1%
O=C1c2ccccc2NC(c2cccc(O)c2)N1O (stereo not shown) [CBK288426] | 98.2%
O=C(NCc1ccccc1)/C(=N\O)c1ccccc1 [CBK288427] | 91.9%
CC1CN(C)C(c2ccccc2)C(C)C12NC(=O)N=C2O (stereo not shown) [CBK288428] | 88.1%
Sc1nnc(-c2cccc(Br)c2)o1 [CBK288432] | 101%

same assay, conditions: human, hela cells, % viability, bulk resorufin, single well

SMILES | viability at 28.5 h, 10 µM
O=C1NC(=O)C(CCc2ccncc2)(c2ccccc2)C(=O)N1 [CBK288431] | 96.9%
